Entries after “also recorded” stand apart in the source; their conditions may differ.
Legend:
[1] = Blood pressure / hemodynamic stress in treated vEDS mice; format: in vivo, mouse; details: for effect on blood pressure: doses as in the survival studies; for hemodynamic stress: dose not stated
vEDS mice = test: Survival of drug-treated vEDS mice (death due to aortic dissection); format: in vivo, mouse; details: for protection from dissection or death: vEDS mice, dose not stated (early data); for survival rate: after about 30 days (1 month) of treatment
Method: Novel knock-in glycine substitution (Col3a1 G209S/+ and Col3a1 G938D/+) vEDS mice were created using CRISPR/Cas9.
To introduce each mutation, 3 guide RNAs (tracrRNA+crRNA) were designed to target the DNA regions flanking the intended mutation site. A DNA oligo repair template (ssDNA oligo) was also designed that included homologous sequences upstream and downstream of the target region, as well as the intended mutation. Pronuclear injection of one-cell C57BL/6J embryos was performed by the JHU Transgenic Core using standard microinjection techniques using a mix of Cas9 protein, tracrRNA, crRNA, and ssDNA oligo diluted in RNAse free injection buffer. Injected embryos were transferred into the oviducts of pseudopregnant ICR females using established techniques. Sanger sequencing of the site was utilized to confirm introduction of the mutation, and the mice were backcrossed for at least 4 generations to eliminate off-target effects. For the G209S mouse, the mutation introduced was c.625_626 GG>TC, corresponding to p.Gly210Ser in humans. For the G938D mouse, the mutation introduced was c.2813G>A, corresponding to […] in humans. The Wild-type Human Col3a1 mRNA NCBI Accession No: NM_000090.3; the wild-type Mouse Col3a1 mRNA NCBI Accession No.: NM_009930.2.
Pharmacological ERK antagonists were tested to support the role of ERK activation in the pathogenesis of vEDS and as a method to identify therapeutic strategies for vEDS. Mice were treated with cobimetinib [GDC-0973, RO5514041] (2 mg/kg/day), an FDA-approved inhibitor of MEK, the kinase that activates ERK^8. It was hypothesized that if ERK activation was truly driving disease risk, ERK inhibition would rescue the risk of death from aortic dissection.
Next, further studies were performed to test agents that inhibit PKC activation. Mice were treated with ruboxistaurin [LY 333531] […] It was hypothesized that if ERK activation, and thereby disease risk, was driven by PLC/IP3/PKC activation, a pharmacologic PKC inhibitor would also rescue the risk of death from aortic dissection.
Further studies were performed to test other medications that inhibit this signaling cascade.

patients with vEDS = details: small human study; cited from earlier work
Col3a1^G209S/+ mice = test: Risk of aortic dissection in Col3a1 G209S/+ mice; format: in vivo, mouse; details: celiprolol; Col3a1 G209S/+ mutation
From the text: Others have proposed^5-8 that vEDS phenotypes are a result of chronically “weak” tissue and therefore propose that decreasing blood pressure with beta-adrenergic receptor blockers should decrease the risk of aortic rupture in these patients. […] Since this was not common to all β antagonists, this observation could be driven by celiprolol's β2 agonism activity.

[2] = tested on: vEDS mice, first 30 days postpartum; test: Postpartum survival of lactating vEDS mice (pregnancy/breastfeeding model); format: in vivo, mouse
From the text: Previously, it was shown that pregnancy-associated aortic dissection is largely driven by lactation-associated oxytocin release and oxytocin-induced ERK signaling in MFS mouse aortas^11. Thus, oxytocin-induced ERK signaling was used as a method to test whether activation of the PLC/IP3/PKC/ERK axis would worsen the risk of aortic dissection.
Oxytocin-induced ERK signaling was used as a method to test the hypothesis that activation of the PLC/IP3/PKC/ERK axis would worsen the risk of aortic dissection.

MFS mice = details: cited from earlier work
129 MFS mice = test: Aortic root growth in Marfan syndrome mice; format: in vivo, mouse; details: ruboxistaurin 10 mg/kg/d, p=2E-4
From the text: In examples, different PKC-β inhibitors are used for the treatment of Marfan Syndrome. For example, treatment of Marfan Syndrome may include administration of ruboxistaurin. […] In other examples, treatment of Marfan Syndrome includes administration of enzastaurin or sotrastaurin.

Q: With `CC(C)NCC(O)COc1ccc(CC(N)=O)cc1` (stereo not drawn) [atenolol] as the molecule, how does the “effect on blood pressure” value [1] read?
A: decreases in blood pressure

Q: What about the improvement in survival (vEDS mice; atenolol 120 mg/kg/d) of the same molecule?
A: none of these manipulations lead to an improvement in survival

Q: For `CC(O)(CS(=O)(=O)c1ccc(F)cc1)C(=O)Nc1ccc(C#N)c(C(F)(F)F)c1` (stereo not drawn) [bicalutamide], which “survival in male mice” value (vEDS mice; bicalutamide alone, male mice) is on record?
A: ~80%

Q: For `COc1ccccc1Oc1c(NS(=O)(=O)c2ccc(C(C)(C)C)cc2)nc(-c2ncccn2)nc1OCCO` [bosentan], which survival (vEDS mice; bosentan 100 mg/kg/d, after 40 days of treatment, 50% survival in untreated vEDS mice, p=0.0298) is on record?
A: 80%

Q: What does the source list for `CCN(CC)C(=O)Nc1ccc(OCC(O)CNC(C)(C)C)c(C(C)=O)c1` (stereo not drawn) [celiprolol]?
A: hemodynamic stress [1]: achieved the predicted lowering of hemodynamic stress; effect on blood pressure [1]: decreases in blood pressure; improvement in survival (vEDS mice; celiprolol 200 mg/kg/d): none of these manipulations lead to an improvement in survival; risk of aortic dissection (vEDS mice; celiprolol 200 mg/kg/d, vEDS mouse models): accelerated the risk of aortic dissection; protection from dissection or death (vEDS mice): significant acceleration of dissection and death; adverse events in patients with vEDS (patients with vEDS): potential to delay adverse events; risk of aortic dissection (Col3a1^G209S/+ mice): increased risk of aortic dissection

Q: Which “effect on blood pressure” value [1] does the source give for `O=C(c1ccc(F)c(F)c1Nc1ccc(I)cc1F)N1CC(O)([C@@H]2CCCCN2)C1` [cobimetinib] here?
A: Neither cobimetinib nor ruboxistaurin had an effect on blood pressure

Q: And the survival (vEDS mice; cobimetinib 2 mg/kg/day, after 45 days of treatment, 55% survival with no treatment)?
A: 94%

Q: What does the source list for `Cn1cc(C2=C(c3cn(C4CCN(Cc5ccccn5)CC4)c4ccccc34)C(=O)NC2=O)c2ccccc21` [enzastaurin, 3-(1-Methylindol-3-yl)-4-[1-[1-(pyridin-2-ylmethyl)piperidin-4-yl]indol-3-yl]pyrrole-2,5-dione]?
A: survival (vEDS mice; enzastaurin 60 mg/kg/d, after 40 days of treatment, 50% of untreated vEDS mice, p=0.0305): 80%; survival rate (vEDS mice; enzastaurin about 30 mg/kg/day orally): about 100%

Q: Which results are given for `NNc1nncc2ccccc12` [hydralazine]?
A: survival postpartum ([2]; hydralazine 16 mg/kg/day, first 30 days postpartum, 60% lethality untreated): 95%; survival (vEDS mice; hydralazine 32 mg/kg/d, at 45 days of age, the median survival for an untreated vEDS mouse): 98%; survival in male mice (vEDS mice; hydralazine-only (32 mg/kg/d) treated male mice): 24%

Q: For `CCCCc1nc(Cl)c(CO)n1Cc1ccc(-c2ccccc2-c2nn[nH]n2)cc1` [losartan], which hemodynamic stress [1] is on record?
A: achieved the predicted lowering of hemodynamic stress

Q: And the impact on survival (vEDS mice; losartan 60 mg/kg/d)?
A: no impact on survival

Q: What about the “protection from dissection or death” value (vEDS mice) of the same molecule?
A: no evidence of protection from dissection or death

Q: What about the “aortic disease in MFS mice” value (MFS mice; MFS mice, literature refs 3-6) of the same molecule?
A: can suppress aortic disease

Q: And the “protection in mouse models of MFS or LDS” value (MFS mice; mouse models of MFS or LDS)?
A: afford dramatic protection

Q: Which impact on survival (vEDS mice; nintedanib 50 mg/kg/d) does the source give for `COC(=O)c1ccc2c(c1)NC(=O)/C2=C(\Nc1ccc(N(C)C(=O)CN2CCN(C)CC2)cc1)c1ccccc1` [nintedanib] here?
A: no impact on survival

Q: Which results are given for `CC(C)NCC(O)COc1cccc2ccccc12` (stereo not drawn) [propranolol]?
A: effect on blood pressure [1]: lowers blood pressure; also recorded: decreases in blood pressure; survival postpartum ([2]; propranolol, after 30 days postpartum, vs. 50% survival): 46%; effect on postpartum survival ([2]; propranolol, first 30 days postpartum, mice still lactating): does not improve survival; also recorded: did not affect survival; improvement in survival (vEDS mice; propranolol 80 mg/kg/d): none of these manipulations lead to an improvement in survival

Q: Which aortic root growth (129 MFS mice) does the source give for `CN(C)C[C@@H]1CCn2cc(c3ccccc32)C2=C(C(=O)NC2=O)c2cn(c3ccccc23)CCO1` [ruboxistaurin, (9S)-9-[(dimethylamino)methyl]-6,7,10,11-tetrahydro-9H,18H-5,21:12,17-di(metheno)dibenzo[e,k]pyrrolo[3,4-h][1,4,13]oxadiazacyclohexadecine-18,20-dione] here?
A: reduces aortic root growth; also recorded: rescued the aortic root growth

Q: What about the “effect on blood pressure” value [1] of the same molecule?
A: Neither cobimetinib nor ruboxistaurin had an effect on blood pressure

Q: What about the survival (vEDS mice; ruboxistaurin 10 mg/kg/day, after 39 days of treatment, 55% survival with no treatment) of the same molecule?
A: 100%

Q: For `CN1CCN(c2nc(C3=C(c4c[nH]c5ccccc45)C(=O)NC3=O)c3ccccc3n2)CC1` [sotrastaurin], which survival rate (vEDS mice; sotrastaurin about 30 mg/kg/day orally) is on record?
A: about 100%

Q: Which survival (vEDS mice; spironolactone alone 100 mg/kg/d) does the source give for `CC(=O)S[C@@H]1CC2=CC(=O)CC[C@]2(C)[C@H]2CC[C@@]3(C)[C@@H](CC[C@@]34CCC(=O)O4)[C@H]12` [spironolactone] here?
A: ~80%

Q: Which survival postpartum ([2]; trametinib 1 mg/kg/day, first 30 days postpartum, 60% lethality untreated) does the source give for `CC(=O)Nc1cccc(-n2c(=O)n(C3CC3)c(=O)c3c(Nc4ccc(I)cc4F)n(C)c(=O)c(C)c32)c1` [trametinib] here?
A: 95%

Q: For `CCOC(=O)N[C@@H]1CC[C@@H]2[C@@H](C1)C[C@H]1C(=O)O[C@H](C)[C@H]1[C@H]2/C=C/c1ccc(-c2cccc(F)c2)cn1` [vorapraxar], which impact on survival (vEDS mice; vorapraxar 1 mg/kg/d) is on record?
A: no impact on survival

Q: For des Gly-NH2,d(CH2)5[D-Tyr2,Thr4]OVT, which survival postpartum ([2]; oxytocin receptor antagonist, first 30 days postpartum, mice still lactating) is on record?
A: 95%

— patent US11938135B2, “Compositions and methods for treating vascular Ehlers Danlos syndrome and associated disorders” (The Johns Hopkins University, priority 2018, dated 2024)
